Measurements taken from publication PMC11787452, “Substrate and inhibitor specificity of Plasmodium nucleoside transporters ENT1 orthologs” (The Journal of Biological Chemistry, 2024).
Several values for one entry are separate records, joined by “and”; a condition that tells them apart may be missing. Identical values can stand only once.

What was measured:
293T cells = assay: Cytotoxicity assay (Cell Counting Kit-8) on 293T cells; assay type: cell-based; conditions: 1.5 to 400 μM, 48 h, compared with GSK4, GSK4-1, GSK4-2
Description: (§1) HepG2 and 293T cells were obtained from ATCC and cultured in Dulbecco’s modified Eagle’s medium supplemented with 10% fetal bovine serum and 1% penicillin-streptomycin (Gibco). Cells were maintained at 37 °C in a humidified atmosphere containing 5% CO2. Cells were seeded at a density of 5 × 10^3 cells per well in 96-well plates and allowed to adhere for 24 h before treatment. Cells were treated with the test compounds at concentrations ranging from 1.5 to 400 μM for 48 h. Control wells were treated with an equivalent concentration of DMSO (vehicle control). Cell viability was assessed using the Cell Counting Kit-8. After 48 h of treatment, 10 μl of Cell Counting Kit-8 solution was added to each well, and the plates were incubated for 2 h at 37 °C. The absorbance was measured at 450 nm using a microplate reader. Cell viability was expressed as a percentage of the control group, and IC50 values were calculated using nonlinear regression analysis (GraphPad Prism 8.0). Data are presented as mean ± SD from three independent experiments, each performed in triplicate.

HepG2 cells = assay: Cytotoxicity assay (Cell Counting Kit-8) on HepG2 cells; assay type: cell-based; conditions: 1.5 to 400 μM, 48 h, compared with GSK4, GSK4-1, GSK4-2
Description: as §1

PfENT1M389L = target: T1, PfENT1M389L (Plasmodium falciparum, UniProt Q8IDM6, M389L); assay: ITC binding to PfENT1M389L
T1 construct: 10xHis (N); made in house; host or cells: Sf9 insect cells (baculovirus)
T1 sequence (Q8IDM6 whole entry M389L): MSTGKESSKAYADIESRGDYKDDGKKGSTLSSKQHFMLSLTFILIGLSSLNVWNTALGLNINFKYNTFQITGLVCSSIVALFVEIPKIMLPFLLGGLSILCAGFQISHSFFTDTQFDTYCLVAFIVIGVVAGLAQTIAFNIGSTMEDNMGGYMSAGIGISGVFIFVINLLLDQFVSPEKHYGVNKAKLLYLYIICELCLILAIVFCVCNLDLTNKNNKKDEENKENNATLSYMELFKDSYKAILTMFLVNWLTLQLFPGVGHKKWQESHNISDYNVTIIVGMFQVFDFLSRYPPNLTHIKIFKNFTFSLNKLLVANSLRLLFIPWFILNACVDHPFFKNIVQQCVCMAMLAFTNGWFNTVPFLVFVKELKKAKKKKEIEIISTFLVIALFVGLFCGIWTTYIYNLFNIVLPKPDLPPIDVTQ
Description: (§2) All the constructs were subcloned and inserted into a modified pFastBac with an N-terminal 10 × His tag. The baculovirus was generated in DH10Bac for recombinant protein expression. After 72 h of infection, Sf9 insect cells were harvested. For structural determination of the PfENT1 protein, Sf9 cells were solubilized in buffer containing 25 mM MES (pH 6.0), 150 mM NaCl, 2% (w/v) n-dodecyl-β-D-maltopyranoside (DDM), and protease inhibitor cocktail (0.8 μM aprotinin, 2 μM pepstatin, and 5 μg/ml leupeptin) at 4 °C for 2 h. After centrifugation at 18,000 rpm for 45 min at 4 °C, the detergent-soluble supernatant was collected via centrifugation at 4 °C for 60 min and incubated with Ni-NTA resin (QIAGEN) at 4 °C for 20 min. The resin was further washed with 25 mM MES pH 6.0, 150 mM NaCl, 10 mM imidazole, and 0.05% (w/v) DDM and eluted with buffer containing 25 mM MES pH 6.0, 150 mM NaCl, 300 mM imidazole, and 0.05% (w/v) DDM. The protein was further purified via size-exclusion chromatography (Superdex 200 Increase 10/300; GE Healthcare) in buffer containing 25 mM MES (pH 6.0), 150 mM NaCl, and 0.05% (w/v) DDM. The peak fractions were pooled and concentrated to 10∼50 μM for the nucleoside-binding assay. The protein purification of the bacterial nucleoside transporter NupG was performed as described in previous studies ([35]).
(§3) […] binding to ENTs was measured at 25 °C via a MicroCal PEAQ-ITC. The purified ENT protein was concentrated to 25 to 50 μM for ITC experiments. The nucleoside was diluted to 5 mM via the same buffer employed for protein purification, which consisted of 25 mM MES (pH 6.0), 150 mM NaCl, and 0.05% DDM. The inhibitor was diluted to 250 μM via the same buffer employed for protein purification, which consisted of 25 mM MES (pH 6.0), 150 mM NaCl, and 0.05% DDM. All the titrations were repeated three times.

PfENT1 = target: T2, PfENT1 (Plasmodium falciparum, UniProt Q8IDM6); assay: ITC binding to PfENT1; conditions: 25 °C, 25 mM MES pH 6.0, 150 mM NaCl, 0.05% DDM, read-out: Kd (binding affinity for PfENT1)
T2 construct: 10xHis (N); made in house; host or cells: Sf9 insect cells (baculovirus)
T2 sequence (Q8IDM6 whole entry): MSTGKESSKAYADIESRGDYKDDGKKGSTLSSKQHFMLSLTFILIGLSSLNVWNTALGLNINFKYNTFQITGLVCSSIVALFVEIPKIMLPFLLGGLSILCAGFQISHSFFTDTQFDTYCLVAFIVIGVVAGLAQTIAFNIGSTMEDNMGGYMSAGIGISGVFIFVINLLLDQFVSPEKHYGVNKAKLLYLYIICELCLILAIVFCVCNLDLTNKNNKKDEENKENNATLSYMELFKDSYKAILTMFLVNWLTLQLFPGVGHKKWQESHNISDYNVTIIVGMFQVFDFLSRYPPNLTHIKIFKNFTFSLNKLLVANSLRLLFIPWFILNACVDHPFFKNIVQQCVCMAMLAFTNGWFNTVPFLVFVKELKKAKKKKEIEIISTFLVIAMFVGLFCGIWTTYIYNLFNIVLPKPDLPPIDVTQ
Description: as §2, §3

PvENT1 = target: T3, PvENT1 (Plasmodium vivax, UniProt A5K8B0); assay: ITC binding to PvENT1
T3 construct: 10xHis (N); made in house; host or cells: Sf9 insect cells (baculovirus)
T3 sequence (A5K8B0 1-416): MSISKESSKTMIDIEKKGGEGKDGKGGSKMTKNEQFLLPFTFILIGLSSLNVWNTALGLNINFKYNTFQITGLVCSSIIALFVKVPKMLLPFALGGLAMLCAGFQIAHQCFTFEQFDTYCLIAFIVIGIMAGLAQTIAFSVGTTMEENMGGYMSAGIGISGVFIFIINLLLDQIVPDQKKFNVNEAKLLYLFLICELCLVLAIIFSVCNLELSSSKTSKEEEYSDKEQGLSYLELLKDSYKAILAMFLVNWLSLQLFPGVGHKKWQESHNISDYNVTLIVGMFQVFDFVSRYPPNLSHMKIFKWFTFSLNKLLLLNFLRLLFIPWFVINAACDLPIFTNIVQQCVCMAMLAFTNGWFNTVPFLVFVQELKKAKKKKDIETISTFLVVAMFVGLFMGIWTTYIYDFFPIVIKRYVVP
Description: as §2, §3

[1] = target: T4, bacterial nucleoside transporter NupG (Escherichia coli, UniProt P0AFF4); assay: ITC binding to NupG
T4 construct: made in house
T4 sequence (P0AFF4 1-418): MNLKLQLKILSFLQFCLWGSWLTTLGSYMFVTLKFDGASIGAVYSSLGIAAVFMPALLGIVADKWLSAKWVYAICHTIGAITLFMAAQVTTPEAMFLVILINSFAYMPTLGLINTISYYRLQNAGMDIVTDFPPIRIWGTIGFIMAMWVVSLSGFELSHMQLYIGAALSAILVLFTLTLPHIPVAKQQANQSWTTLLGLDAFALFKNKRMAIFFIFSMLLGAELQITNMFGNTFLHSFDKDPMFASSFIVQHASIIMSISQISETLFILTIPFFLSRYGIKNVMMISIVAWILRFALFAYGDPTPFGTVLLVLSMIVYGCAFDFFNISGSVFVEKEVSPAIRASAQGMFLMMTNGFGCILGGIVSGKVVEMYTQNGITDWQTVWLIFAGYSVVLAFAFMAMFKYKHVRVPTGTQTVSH
Description: as §2, with “The protein purification of the bacterial nucleoside transporter NupG was performed as described in previous studies ([35]).” left out
Nucleotide binding to ENTs was measured at 25 °C via a MicroCal PEAQ-ITC. […]

PbENT1 = target: T5, PbENT1 (Plasmodium berghei, UniProt A0A509AYF4); assay: ITC binding to PbENT1
T5 construct: 10xHis (N); made in house; host or cells: Sf9 insect cells (baculovirus)
T5 sequence (A0A509AYF4 1-412): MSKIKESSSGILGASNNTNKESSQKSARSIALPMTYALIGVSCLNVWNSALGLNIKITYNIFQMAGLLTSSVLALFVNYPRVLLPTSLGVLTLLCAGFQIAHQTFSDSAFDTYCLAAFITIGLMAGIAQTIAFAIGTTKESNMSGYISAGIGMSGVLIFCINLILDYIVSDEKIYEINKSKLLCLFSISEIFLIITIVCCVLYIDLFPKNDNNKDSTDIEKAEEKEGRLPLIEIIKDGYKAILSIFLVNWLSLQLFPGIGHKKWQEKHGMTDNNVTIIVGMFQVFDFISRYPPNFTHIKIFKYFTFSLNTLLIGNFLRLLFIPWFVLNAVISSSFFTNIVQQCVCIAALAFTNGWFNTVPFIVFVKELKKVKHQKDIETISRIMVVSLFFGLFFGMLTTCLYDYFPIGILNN
Description: as §2, §3

O=C(NCCN1CCCCCC1=O)c1nc(-c2ccccc2)oc1C1CC1 [GSK4-3]
cytotoxicity (in words) (293T cells): lower cytotoxicity | cytotoxicity (in words) (HepG2 cells): lower cytotoxicity | increase in binding affinity for PfENT1M389L compared with parent compound GSK4 (PfENT1M389L): 6 fold | Kd (PfENT1M389L; Kd (binding to PfENT1M389L), 25 °C, pH 6.0): 44.4 nM | Kd (PfENT1): 21.9 nM and 13.4 nM and 16.4 nM | binding affinity for PvENT1 (in words) (PvENT1): comparable binding | Kd (PvENT1; 25 °C, 25 mM MES pH 6.0, 150 mM NaCl, 0.05% DDM, read-out: Kd (binding affinity for PvENT1)): 57.2 nM and 37.6 nM and 30.8 nM | binding to NupG (in words) [1]: cannot bind | binding affinity for PbENT1 (in words) (PbENT1): negligible binding
